Measurements taken from patent publication EP2966448B1, “METHOD FOR THE PREDICTION OR PROGNOSIS OF THE RESPONSE OF A HUMAN SUBJECT SUFFERING FROM CANCER TO TREATMENT WITH AN ANTAGONIST OF THE NK1 RECEPTOR” (priority 2013, dated 2014).
Where two headings read alike, the source gives them in different places.

Experiments:
[1] = test system: human primary tumor cells; assay: Inhibition of primary tumor cell cultures vs amplification of the gene encoding the NK1 receptor (Example 6; tumor type per table line); type: cell-based; details: for Percentage of inhibition of cell cultures: 100 micromolar
Procedure: (§1) Cell cultures. […] Briefly, small pieces of the tumors were digested into a hyaluronidase solution (Sigma-Aldrich, USA) at a concentration of 1 mg/ml during 15 minutes at 37°C, and then they were treated with 6 mg/ml of collagenase type IV (Invitrogen) during 2 hours at 37°C. Consecutively, cells were washed, and resuspended in the DMEM culture medium with high concentration of glucose (Dulbecco's Modified Eagle's Medium, Invitrogen) supplemented with 1% of antibiotics-antimycotics (Invitrogen) and with 1% of sodium pyruvate (Invitrogen), and the cells were seeded in culture slides at a concentration of 10.000 cells per square centimeter. When cells reached confluence, the adherent cells were separated using sterile trypsin at 0,5% (Invitrogen) and they were used among passages 3 and 9. For the assays shown next, tumor cells were seeded on slides at a concentration of 25.000 cells per well. A total of 6 wells containing the tumor cells were used as survival control. […] All the cultures were kept during 48 hours and later on recollected for their analysis.
The presence or absence of the amplification of the gene encoding for the NK1 receptor was determined, and then the cells were cultured in the presence of several antagonists of the NK1 receptor.
For each case, the presence or absence of amplification of the gene encoding for the NK1 receptor was determined.
In order to determine the presence of the amplification (increase in the number of copies) of the gene encoding the NK1 receptor (TAC1R), it was used the comparative genomic hybridization technique (CGH Array). Firstly genomic DNA was extracted from each case. Later, it was performed the marking and hybridization of the DNA of each sample together with DNA of a commercial reference without genomic alterations (from masculine or feminine sex, depending on the gender of the patient from whom the samples were obtained). The Array is Sureprint G3 Human CGH Microarray from the company Agilent was used, with an average separation between probes of 5.3Kb and 4.6Kb for the genes RefSeq. The reading of the microarray was done with the DNA Microarray Scanner G2565CA from Agilent, at a resolution of 3 µm. The analysis of the results was performed with the software Cytogenomics v 2.0.6.0 from Agilent with ADM-2: 6.0; Centralization: ON (Threshold: 6.0, Bin size: 10); Fuzzy zero: ON; Aberration filters: ON (minProbes=5 and minAvgAbsLopRatio= 0,5); Feature Level Filters : ON. The genomic coordinates are coincident with the NCBI36genome (hg18). Cases were distributed in two groups: Group I for those cases without the amplification of the gene encoding the NK1 receptor (locus 2p13.1-p12), and Group II for those cases with amplification of the gene encoding the NK1receptor (locus 2p13.1-p12).
The antibody against NK1 receptor (Table 36) was used at 1/50 concentration. The percentages of inhibition are expressed in percentages of variation in relation to control ± standard deviation.

Myeloma = assay: Inhibition of primary tumor cell cultures (48 hours) vs NK1 receptor immunostaining (Example 1); type: cell-based; details: Homo sapiens, 1 micromolar, read-out: Percentage of inhibition of cell cultures
Procedure: (§2) Cell cultures. To obtain tumor cells from human primary tumors we used the method described in De Bari et al. (De Bari et al. 2001). Briefly, small pieces of the tumors were digested into a hyaluronidase solution (Sigma-Aldrich, USA) at a concentration of 1 mg/ml during 15 minutes at 37°C, and then they were treated with 6 mg/ml of collagenase type IV (Invitrogen) during 2 hours at 37°C. Consecutively, cells were washed, and resuspended in the DMEM culture medium with high concentration of glucose (Dulbecco's Modified Eagle's Medium, Invitrogen) supplemented with 1% of antibiotics-antimycotics (Invitrogen) and with 1% of sodium pyruvate (Invitrogen), and the cells were seeded in culture slides at a concentration of 10.000 cells per square centimeter. When cells reached confluence, the adherent cells were separated using sterile trypsin at 0,5% (Invitrogen) and they were used among passages 3 and 9. For the assays shown next, tumor cells were seeded on slides at a concentration of 25.000 cells per well. A total of 6 wells containing the tumor cells were used as survival control. […] All the cultures were kept during 48 hours and later on recollected for their analysis.
(§3) Immunohistochemistry techniques. The presence of NK1 receptors was also analyzed using immunohistochemistry techniques. Briefly, a sample of each of the cultures of the cell lines used in the present invention, was centrifuged (5 minutes at 1.500 rpm) and the pellet obtained was dehydrated using increasing concentrations of ethanol and, finally, xylol. Then, said dehydrated samples were embedded in paraffin, creating a block of cells. Such paraffin blocks were cut with a microtome at 5 microns thickness, and were placed on microscope slides adequate to perform immunohistochemistry techniques. Consecutively, they were de-paraffinized by immersing them in xylol, to be finally hydrated using a solution containing decreasing concentrations of ethanol, and finally submerged them into water. […] After this, the samples were left to cool down at room temperature for 10 minutes. The endogenous peroxidase activity was blocked with 3% peroxide of hydrogen for 30 minutes at room temperature. After washing the samples with 0.05 M of Tris buffer, they were incubated with 10% non-immune pork serum at for 30 minutes at room temperature. To analyze the expression of NK1 receptors, the cellular samples were incubated in the presence of anti-NK1 antibodies (S8305, Sigma-Aldrich) diluted 1:1000, overnight at 4°C. Afterwards, the samples were washed in Tris buffer 0.05 M at room temperature. The next step was the addition of Envision System-HRP (Dako) reagents for 30 minutes at room temperature. Then, the samples were washed again in Tris buffer 0.05 M and the immunoreactivity was visualized through light microscopy with a chromogenic solution containing 3,3'-Diaminobenzidine (DAB+; Dako, USA). To differentiate the cell nuclei, they were slightly stained with hematoxylin. As negative control, it was used samples not incubated with the primary antibody anti-NK1, which was replaced by non-immune serum. All the samples were evaluated.
(§4) To value the immunostaining in each of the cases six cuts were performed to be analyzed by the immunohistochemistry technique. In each of the six cuts, it was counted cells in 20 fields (magnification 400x) using an Olympus microscope (model CX31). In each field it was counted the total number of cells and the number of cells presenting immunostaining, calculating afterwards the percentage of cells which presented immunostaining.

Fibrosarcoma = assay: as above; type: cell-based; details: Homo sapiens, 1 micromolar, read-out: Percentage of inhibition of cell cultures
Procedure: as §2, §3, §4

Pancreatic carcinoma = assay: as above; type: cell-based; details: Homo sapiens, 1 micromolar, read-out: Percentage of inhibition of cell cultures
Procedure: as §2, §3, §4

Endometrium carcinoma = assay: cells; details: Homo sapiens, 1 micromolar
Procedure: as §2, §3, §4

[2] = test system: human primary tumor cells; assay: Inhibition of primary tumor cell cultures vs absence or presence of AKT protein (Example 4; tumor type per table line); type: cell-based; details: cancer cell cultures showing more presence of AKT, compared; non-peptidic antagonists 100 micromolar, antibody 1/50
Procedure: as §1
Afterwards, the cells were cultured in presence of several antagonists of the NK1 receptor.
In each case it was determined the presence or absence of the AKT protein effector downstream in the PI3 Kinases pathway.
To determine the presence of the AKT protein in the different cultures Western Blot technique was performed (following the description in example 1-Western Blot section), but using as primary antibody with reference: Akt (pan) (11E7) Rabbit mAb (4685, Cell Signalling).
The antibody against NK1 receptor (Table 26) was used at 1/50 concentration. The percentages of inhibition are expressed in percentage of variation in relation to control ± standard deviation.

[3] = test system: Lung carcinoma (small cell lung carcinoma); assay: Inhibition of primary tumor cell cultures vs Kras mutation (Example 2); type: cell-based, human; details: Homo sapiens, 100 micromolar, read-out: Percentage of inhibition of cell cultures
Procedure: To obtain tumor cells from human primary tumors we used the method described in De Bari et al. (De Bari et al. 2001). Briefly, small pieces of the tumors were digested into a hyaluronidase solution (Sigma-Aldrich, USA) at a concentration of 1 mg/ml during 15 minutes at 37°C, and then they were treated with 6 mg/ml of collagenase type IV (Invitrogen) during 2 hours at 37°C. Consecutively, cells were washed, and resuspended in the DMEM culture medium with high concentration of glucose (Dulbecco's Modified Eagle's Medium, Invitrogen) supplemented with 1% of antibiotics-antimycotics (Invitrogen) and with 1% of sodium pyruvate (Invitrogen), and the cells were seeded in culture slides at a concentration of 10.000 cells per square centimeter. When cells reached confluence, the adherent cells were separated using sterile trypsin at 0,5% (Invitrogen) and they were used among passages 3 and 9. For the assays shown next, tumor cells were seeded on slides at a concentration of 25.000 cells per well. A total of 6 wells containing the tumor cells were used as survival control. […] All the cultures were kept during 48 hours and later on recollected for their analysis.
In each case the presence or not of mutations in K-ras gene was determined.
To determine the existence of mutations in the K-ras gene DNA from cancer tumor cells was extracted from samples obtained from the different cancer tumor cells, using DNA extraction kits from Takara (Madison, WI, US) or Ambion (Huntingdon, Cambridgeshire, United Kingdom), following the manufacturer's instructions, and as it has been previously published (Di Fiore F, et al. 2007). Consecutively it was analyzed by sequencing the exon 2 of the KRAS gene, , by means of PCR amplification from previously extracted cancer tumor DNA, using the following sense primer (SEQ ID NO. 15): 5'-[sequence]-3' and anti-sense primer (SEQ ID NO. 16): 5'-[sequence]-3'. After the purification using the Qiagen extraction kit, the PCR products were sequenced using the Big Dye Terminator Kit V3.1 (Applied Biosystems, Foster City, CA, U.S.) and an ABI Prism 377 or 3100 DNA sequencer (Applied Biosystems). The presence of a heterozygous mutation in the KRAS gene in cancer tumor cells of the cultures was defined as the appearance of a mutant peak of a height of at least a third of the wild type. All the sequence analysis were executed at least twice in two independent PCR.
The antibody against NK1 receptor (Table 16) was used at 1/50 concentration. The percentages of inhibition are expressed in percentage of variation in relation to control ± standard deviation.

[4] = test system: Carcinoma of the uterine cervix; assay: Inhibition of primary tumor cell cultures (48 hours) vs NK1 receptor immunostaining (Example 1); type: cell-based; details: Homo sapiens, 1 micromolar, read-out: Percentage of inhibition of cell cultures
Procedure: as §2, §3, §4

[5] = test system: human primary tumor cells; assay: Inhibition of primary tumor cell cultures vs absence or presence of ERK  protein (Example 3; tumor type per table line); type: cell-based; details: for Percentage of inhibition of cell cultures: 100 micromolar
Procedure: as §1
Consecutively, the cells were placed in cultures in the presence of several antagonists of the NK1 receptor.
In each case it was determined the presence or absence of the downstream effector in the MAP Kinases ERK pathway.
To determine the presence of the ERK protein, it was performed a Western Blot technique, using as primary antibody: Phospho-p44/42 MAPK (Erk1/2) (Thr202/Tyr204) (D13.14.4E) XP® Rabbit mAb (4370, Cell Signalling). To determine the presence of the MEK protein, it was performed the Western Blot technique, using as primary antibody Phospho-MEK1/2 (Ser217/221) (9121, Cell Signalling).
The antibody against NK1 receptor (Table 21) was used at 1/50 concentration. The percentages of inhibition are expressed in percentages of variation in relation to control ± standard deviation.

[6] = NK1 receptor immunostaining Group 1 (less than 20% of the cells)
[7] = NK1 receptor immunostaining Group 2 (20-80% of the cells)
[8] = NK1 receptor immunostaining Group 3 (more than 80% of the cells)
[9] = NK1 receptor immunostaining Intensity grade 1
[10] = NK1 receptor immunostaining Intensity grade 2
[11] = NK1 receptor immunostaining Intensity grade 3

`CC(=O)N1CCN([C@H]2CCN(C(=O)N(C)[C@H](C)c3cc(C(F)(F)F)cc(C(F)(F)F)c3)[C@@H](c3ccc(F)cc3C)C2)CC1` [Casopitant] was tested, and the “Percentage of inhibition of cell cultures” value ([1]; Undifferentiated Pleomorphic Sarcoma (malignant fibrous histiocytoma grade 3), Cases without amplification of the gene that encodes for the NK1 receptor) was 25±7 percentage, the “Percentage of inhibition of cell cultures” value ([1]; Urinary bladder carcinoma (transitional cell carcinoma), Cases with amplification of the gene that encodes for the NK1 receptor) was 97±3 percentage and the “Percentage of inhibition of cell cultures” value ([1]; Urinary bladder carcinoma (transitional cell carcinoma), Cases without amplification of the gene that encodes for the NK1 receptor) was 26±4 percentage. For the same compound, the “inhibition of cell proliferation” value ([1]; cancer cell cultures which show amplification in the genomic region encoding the NK1 receptor, compared, non-peptidic antagonists 100 micromolar, antibody 1/50) was “higher inhibition”, the inhibition at 1 µM (Myeloma; [6]) was 16 ± 3% and the inhibition at 1 µM (Myeloma; [7]) was 47 ± 4%. The inhibition at 1 µM (Myeloma; [8]) was 94 ± 5%, the inhibition at 1 µM (Myeloma; [9]) was 35 ± 3% and the inhibition at 1 µM (Myeloma; [10]) was 55 ± 3%. The inhibition at 1 µM (Myeloma; [11]) was 93 ± 3%, the inhibition at 1 µM (Fibrosarcoma; [6]) was 15 ± 2% and the inhibition at 1 µM (Fibrosarcoma; [7]) was 47 ± 5%. It also gave an inhibition at 1 µM (Fibrosarcoma; [8]) of 93 ± 4%, an inhibition at 1 µM (Fibrosarcoma; [9]) of 35 ± 6% and an inhibition at 1 µM (Fibrosarcoma; [10]) of 55 ± 3%. For the same compound, the inhibition at 1 µM (Fibrosarcoma; [11]) was 92 ± 4%, the inhibition at 1 µM (Pancreatic carcinoma; [6]) was 10 ± 4% and the inhibition at 1 µM (Pancreatic carcinoma; [7]) was 45 ± 2%. For the same compound, the inhibition at 1 µM (Pancreatic carcinoma; [8]) was 92 ± 4%, the inhibition at 1 µM (Pancreatic carcinoma; [9]) was 33 ± 5% and the inhibition at 1 µM (Pancreatic carcinoma; [10]) was 53 ± 3%. It also gave an inhibition at 1 µM (Pancreatic carcinoma; [11]) of 93 ± 1%, an inhibition at 1 µM (Endometrium carcinoma; read-out: Percentage of inhibition of cell cultures, NK1 receptor immunostaining Group 1 (less than 20% of the cells)) of 16 ± 3% and an inhibition at 1 µM (Endometrium carcinoma; read-out: Percentage of inhibition of cell cultures, NK1 receptor immunostaining Group 2 (20-80% of the cells)) of 46 ± 3%. It also gave an inhibition at 1 µM (Endometrium carcinoma; read-out: Percentage of inhibition of cell cultures, NK1 receptor immunostaining Group 3 (more than 80% of the cells)) of 92 ± 3%, an inhibition at 1 µM (Endometrium carcinoma; read-out: Percentage of inhibition of cell cultures, NK1 receptor immunostaining Intensity grade 1) of 34 ± 5% and an inhibition at 1 µM (Endometrium carcinoma; read-out: Percentage of inhibition of cell cultures, NK1 receptor immunostaining Intensity grade 2) of 55 ± 5%. The inhibition at 1 µM (Endometrium carcinoma; read-out: Percentage of inhibition of cell cultures, NK1 receptor immunostaining Intensity grade 3) was 94 ± 4%, the “inhibition of cell proliferation” value [2] was “higher inhibition” and the inhibition at 100 µM ([3]; Cases with Kras mutated) was 26 ± 4%. It also gave an inhibition at 100 µM ([3]; Cases with Kras non-mutated (wild type)) of 94 ± 2%, an inhibition at 1 µM [4, 6] of 16 ± 3% and an inhibition at 1 µM [4, 7] of 47 ± 4%. It also gave an inhibition at 1 µM [4, 8] of 93 ± 3%, an inhibition at 1 µM [4, 9] of 33 ± 3% and an inhibition at 1 µM [4, 10] of 53 ± 3%. The inhibition at 1 µM [4, 11] was 92 ± 2%, the “Percentage of inhibition of cell cultures” value ([5]; Breast carcinoma (ductal adenocarcinoma), cases with presence of ERK) was 93±4 percentage and the “Percentage of inhibition of cell cultures” value ([5]; Breast carcinoma (ductal adenocarcinoma), cases without presence of ERK) was 26±4 percentage. For the same compound, the “Percentage of inhibition of cell cultures” value ([5]; Burkitt Lymphoma, cases with presence of ERK) was 97±5 percentage, the “Percentage of inhibition of cell cultures” value ([5]; Burkitt Lymphoma, cases without presence of ERK) was 28±6 percentage and the “Percentage of inhibition of cell cultures” value ([5]; Carcinoma of the uterine cervix (Squamous cell carcinoma), cases with presence of ERK) was 93±4 percentage. For the same compound, the “Percentage of inhibition of cell cultures” value ([5]; Carcinoma of the uterine cervix (Squamous cell carcinoma), cases without presence of ERK) was 28±3 percentage, the “Percentage of inhibition of cell cultures” value ([5]; Colon carcinoma (Adenocarcinoma), cases with presence of ERK) was 95±3 percentage and the “Percentage of inhibition of cell cultures” value ([5]; Colon carcinoma (Adenocarcinoma), cases without presence of ERK) was 24±3 percentage. The “Percentage of inhibition of cell cultures” value ([5]; Endometrium carcinoma, cases with presence of ERK) was 93±5 percentage, the “Percentage of inhibition of cell cultures” value ([5]; Endometrium carcinoma, cases without presence of ERK) was 29±2 percentage and the “Percentage of inhibition of cell cultures” value ([5]; Gastric carcinoma (Adenocarcinoma), cases with presence of ERK) was 96±4 percentage. The “Percentage of inhibition of cell cultures” value ([5]; Gastric carcinoma (Adenocarcinoma), cases without presence of ERK) was 25±6 percentage, the “Percentage of inhibition of cell cultures” value ([5]; Glioma (astrocytoma), cases with presence of ERK) was 93±4 percentage and the “Percentage of inhibition of cell cultures” value ([5]; Glioma (astrocytoma), cases without presence of ERK) was 28±3 percentage. The “Percentage of inhibition of cell cultures” value ([5]; Lung carcinoma (non small cell lung carcinoma), cases with presence of ERK) was 95±7 percentage, the “Percentage of inhibition of cell cultures” value ([5]; Lung carcinoma (non small cell lung carcinoma), cases without presence of ERK) was 27±5 percentage and the “Percentage of inhibition of cell cultures” value ([5]; Lung carcinoma (small cell lung carcinoma), cases with presence of ERK) was 94±5 percentage. The “Percentage of inhibition of cell cultures” value ([5]; Lung carcinoma (small cell lung carcinoma), cases without presence of ERK) was 29±4 percentage, the “Percentage of inhibition of cell cultures” value ([5]; Melanoma (Nodular Melanoma), cases with presence of ERK) was 96±5 percentage and the “Percentage of inhibition of cell cultures” value ([5]; Melanoma (Nodular Melanoma), cases without presence of ERK) was 27±5 percentage. The “Percentage of inhibition of cell cultures” value ([5]; Non Hodgkin Lymphoma B (diffuse B cell lymphoma), cases with presence of ERK) was 97±5 percentage, the “Percentage of inhibition of cell cultures” value ([5]; Non Hodgkin Lymphoma B (diffuse B cell lymphoma), cases without presence of ERK) was 28±4 percentage and the “Percentage of inhibition of cell cultures” value ([5]; Non Hodgkin Lymphoma T (diffuse T cell lymphoma), cases with presence of ERK) was 98±4 percentage. For the same compound, the “Percentage of inhibition of cell cultures” value ([5]; Non Hodgkin Lymphoma T (diffuse T cell lymphoma), cases without presence of ERK) was 29±5 percentage, the “Percentage of inhibition of cell cultures” value ([5]; Ovarian carcinoma (Adenocarcinoma), cases with presence of ERK) was 92±6 percentage and the “Percentage of inhibition of cell cultures” value ([5]; Ovarian carcinoma (Adenocarcinoma), cases without presence of ERK) was 28±5 percentage. For the same compound, the “Percentage of inhibition of cell cultures” value ([5]; Pancreatic carcinoma (Adenocarcinoma), cases with presence of ERK) was 94±2 percentage, the “Percentage of inhibition of cell cultures” value ([5]; Pancreatic carcinoma (Adenocarcinoma), cases without presence of ERK) was 23±4 percentage and the “Percentage of inhibition of cell cultures” value ([5]; Prostate carcinoma, cases with presence of ERK) was 94±5 percentage. The “Percentage of inhibition of cell cultures” value ([5]; Prostate carcinoma, cases without presence of ERK) was 27±4 percentage, the “Percentage of inhibition of cell cultures” value ([5]; Renal cell carcinoma (clear cell renal cell carcinoma), cases with presence of ERK) was 94±3 percentage and the “Percentage of inhibition of cell cultures” value ([5]; Renal cell carcinoma (clear cell renal cell carcinoma), cases without presence of ERK) was 27±3 percentage. For the same compound, the “Percentage of inhibition of cell cultures” value ([5]; Thyroid carcinoma (follicular carcinoma), cases with presence of ERK) was 96±6 percentage, the “Percentage of inhibition of cell cultures” value ([5]; Thyroid carcinoma (follicular carcinoma), cases without presence of ERK) was 26±4 percentage and the “Percentage of inhibition of cell cultures” value ([5]; Thyroid carcinoma (papillary carcinoma), cases with presence of ERK) was 97±4 percentage. For the same compound, the “Percentage of inhibition of cell cultures” value ([5]; Thyroid carcinoma (papillary carcinoma), cases without presence of ERK) was 28±3 percentage, the “Percentage of inhibition of cell cultures” value ([5]; Undifferentiated Pleomorphic Sarcoma (malignant fibrous histiocytoma grade 3), cases with presence of ERK) was 95±3 percentage and the “Percentage of inhibition of cell cultures” value ([5]; Undifferentiated Pleomorphic Sarcoma (malignant fibrous histiocytoma grade 3), cases without presence of ERK) was 26±4 percentage. The “Percentage of inhibition of cell cultures” value ([5]; Urinary bladder carcinoma (transitional cell carcinoma), cases with presence of ERK) was 98±2 percentage, the “Percentage of inhibition of cell cultures” value ([5]; Urinary bladder carcinoma (transitional cell carcinoma), cases without presence of ERK) was 29±4 percentage and the “inhibition of cell proliferation” value ([5]; cancer cell cultures that show more presence of ERK, compared, non-peptidic antagonists 100 micromolar, antibody 1/50) was “higher inhibition”.
